Results reported in paper PMC5577601, “The Neuroprotective Marine Compound Psammaplysene A Binds the RNA-Binding Protein HNRNPK” (Marine Drugs, 2017).

Target: T1, HNRNPK (Homo sapiens, UniProt P61978)
T1 construct: GST-HNRNPK
Assay: surface plasmon resonance (Biacore […]), RNA-saturated GST-HNRNPK vs GST; a second estimate vs GST-HNRNPI gave Kd […]
Type: binding

Kd: 77.3 µM
Structure (SMILES): CN(C)CCCOc1c(Br)cc(/C=C/C(=O)NCCCOc2c(Br)cc(CCN(C)C)cc2Br)cc1Br [PA, Psammaplysene A]
